# Source: patent EP1043319A1, “NOVEL ALKYLAMINO DERIVATIVES” (MITSUBISHI CHEMICAL CORPORATION, priority 1997, dated 1999)
# Structures can show the parent of a compound that is named as a salt.
# Target: T1, Sigma 2 (Rattus norvegicus, UniProt Q5U3Y7)
# T1 sequence (Q5U3Y7 1-176): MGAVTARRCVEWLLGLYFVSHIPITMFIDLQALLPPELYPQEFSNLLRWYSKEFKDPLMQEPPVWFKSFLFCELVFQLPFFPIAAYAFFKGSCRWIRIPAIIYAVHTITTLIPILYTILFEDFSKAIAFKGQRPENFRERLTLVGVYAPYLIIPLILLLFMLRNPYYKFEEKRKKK
# Experiment: biochemical
# Conditions: not given
row,Ki,SMILES
1,4.5 nM,"O=C(CN1CCC(Cn2c(=O)sc3cc(Cl)ccc32)CC1)c1ccc(F)cc1 [Example 33, 3-[[1-[2-(4-Fluorophenyl)-2-oxoethyl]-4-piperidinyl]methyl]-6-chloro-2-oxobenzothiazoline hydrochloride]"
2,7 nM,"N=c1sc2cc(Cl)ccc2n1CC1CCN(CC(=O)c2ccc(F)cc2)CC1 [Example 2, 3-[[1-[2-(4-Fluorophenyl)-2-oxoethyl]-4-piperidinyl]methyl]-6-chloro-2-iminobenzothiazoline dihydrochloride]"
3,3.1 nM,"O=C(CN1CCC(Cn2c(=O)sc3ccc(Cl)cc32)CC1)c1ccc(F)cc1 [Example 39, 3-[[1-[2-(4-Fluorophenyl)-2-oxoethyl]-4-piperidinyl]methyl]-5-chloro-2-oxobenzothiazoline hydrochloride]"
4,7.3 nM,"N=c1sc2cc(C(F)(F)F)ccc2n1CC1CCN(CC(=O)c2ccc(F)cc2)CC1 [Example 23, 3-[[1-[2-(4-Fluorophenyl)-2-oxoethyl]-4-piperidinyl]methyl]-2-imino-6-trifluoromethylbenzothiazoline dihydrochloride]"
5,21 nM,"N=c1sc2cc(F)ccc2n1CC1CCN(CC(=O)c2ccc(F)cc2)CC1 [Example 19, 3-[[1-[2-(4-Fluorophenyl)-2-oxoethyl]-4-piperidinyl]methyl]-6-fluoro-2-iminobenzothiazoline dihydrochloride]"
6,19 nM,"CN=c1sc2cc(Cl)ccc2n1CC1CCN(C[C@@H](O)c2ccc(F)cc2)CC1 [Example 28, (S)-1-(4-Fluorophenyl)-2-[4-(6-chloro-2-methyliminobenzothiazolin-3-yl-methyl)piperidine-1-yl]ethanol dihydrochloride]"
7,6.3 nM,"O=C(CN1CCC(Cn2c(=O)sc3cc(Br)ccc32)CC1)c1ccc(F)cc1 [Example 31, 3-[[1-[2-(4-Fluorophenyl)-2-oxoethyl]-4-piperidinyl]methyl]-6-bromo-2-oxobenzothiazoline hydrochloride]"
8,31 nM,"O=c1sc2cc([N+](=O)[O-])ccc2n1CC1CCN(CC(O)c2ccc(F)cc2)CC1 (stereo not drawn) [Example 36, 1-(4-Fluorophenyl)-2-[4-(6-nitro-2-oxobenzothiazolin-3-ylmethyl)piperidin-1-yl]ethanol hydrochloride]"
9,23 nM,"Cc1ccc2c(c1)sc(=N)n2CC1CCN(CC(=O)c2ccc(F)cc2)CC1 [Example 18, 3-[[1-[2-(4-Fluorophenyl)-2-oxoethyl]-4-piperidinyl]methyl]-6-methyl-2-iminobenzothiazoline dihydrochloride]"
10,17 nM,"CN=c1sc2cc(Cl)ccc2n1CC1CCN(C[C@H](O)c2ccc(F)cc2)CC1 [Example 27, (R)-1-(4-Fluorophenyl)-2-[4-(6-chloro-2-methyliminobenzothiazolin-3-yl-methyl)piperidin-1-yl]ethanol dihydrochloride]"
11,17 nM,"CN=c1sc2cc(Cl)ccc2n1CC1CCN(CC(=O)c2ccc(S(N)(=O)=O)cc2)CC1 [Example 21, 3-[[1-[2-(4-Aminosulfonylphenyl)-2-oxoethyl]-4-piperidinyl]methyl]-6-chloro-2-methyliminobenzothiazoline dihydrochloride]"
12,9.3 nM,"CC(=O)N=c1sc2cc(Cl)ccc2n1CC1CCN(CC(=O)c2ccc(F)cc2)CC1 [Example 9, 3-[[1-[2-(4-Fluorophenyl)-2-oxoethyl]-4-piperidinyl]methyl]-6-chloro-2-acetyliminobenzothiazoline hydrochloride]"
13,28 nM,"N=c1sc2ccccc2n1CC1CCN(CC(=O)c2ccc(F)cc2)CC1 [Example 15, 3-[[1-[2-(4-Fluorophenyl)-2-oxoethyl]-4-piperidinyl]methyl]-2-iminobenzothiazoline dihydrochloride]"
14,13 nM,"O=C(CN1CCC(Cn2c(=O)sc3cc([N+](=O)[O-])ccc32)CC1)c1ccc(F)cc1 [Example 35, 3-[[1-[2-(4-Fluorophenyl)-2-oxoethyl]-4-piperidinyl]methyl]-6-nitro-2-oxobenzothiazoline hydrochloride]"

row,SMILES,Ki
1,"CN=c1sc2cc(Cl)ccc2n1CC1CCN(CC(O)c2ccc(F)cc2)CC1 (racemic) [Example 5, (R,S)-1-(4-Fluorophenyl)-2-[4-(6-chloro-2-methyliminobenzothiazolin-3-yl-methyl)piperidin-1-yl]ethanol dihydrochloride]",7.2 nM
2,"N=c1sc2cc(Cl)ccc2n1CC1CCN(CC(O)c2cccc(F)c2)CC1 (racemic) [Example 11, (R,S)-1-(3-Fluorophenyl)-2-[4-(6-chloro-2-iminobenzothiazolin-3-yl-methyl)piperidin-1-yl]ethanol dihydrochloride]",36 nM
3,"O=c1sc2ccc(Cl)cc2n1CC1CCN(CC(O)c2ccc(F)cc2)CC1 (racemic) [Example 40, (R,S)-1-(4-Fluorophenyl)-2-[4-(5-chloro-2-oxobenzothiazolin-3-ylmethyl)piperidin-1-yl]ethanol hydrochloride]",4.7 nM
4,"CN=c1sc2cc(Cl)ccc2n1CC1CCN(CC(=O)c2ccc(F)cc2)CC1 [Example 4, 3-[[1-[2-(-Fluorophenyl)-2-oxoethyl]-4-piperidinyl]methyl]-6-chloro-2-methyliminobenzothiazoline dihydrochloride]",4 nM
5,"CN=c1sc2cc(Cl)ccc2n1CCCCN(C)CC(O)c1ccc(F)cc1 (racemic) [Example 30, (R,S)-1-(4-Fluorophenyl)-2-[[N-[4-(6-chloro-2-methyliminobenzothiazolin-3-yl)butyl]-N-methyl]amino]ethanol dihydrochloride]",25 nM
6,"N=c1sc2cc(Cl)ccc2n1CC1CCN(CC(O)C23CC4CC(CC(C4)C2)C3)CC1 (racemic) [Example 1, (R,S)-1-(1-Adamantyl)-2-[4-(6-chloro-2-iminobenzothiazolin-3-ylmethyl)piperidin-1-yl] ethanol dihydrochloride]",8.7 nM
7,"O=c1sc2cc(Br)ccc2n1CC1CCN(CC(O)c2ccc(F)cc2)CC1 (racemic) [Example 32, (R,S)-1-(4-Fluorophenyl)-2-[4-(6-bromo-2-oxobenzothiazolin-3-ylmethyl)-piperidin-1-yl]ethanol hydrochloride]",4 nM
8,"CN=c1sc2cc(Cl)ccc2n1CC1CCN(CC(O)c2ccc(F)cc2F)CC1 (racemic) [Example 22, (R,S)-1-(2,4-Difluorophenyl)-2-[4-(6-chloro-2-methyliminobenzothiazolin-3-ylmethyl)piperidin-1-yl]ethanol dihydrochloride]",9.4 nM
9,"N=c1sc2cc(Cl)ccc2n1CC1CCN(CC(O)c2ccc(F)c(F)c2)CC1 (racemic) [Example 6, (R,S)-1-(3,4-Difluorophenyl)-2-[4-(6-chloro-2-iminobenzothiazolin-3-yl-methyl)piperidin-1-yl]ethanol dihydrochloride]",25 nM

# Target: T1, Sigma 2
# Experiment: not given
# Conditions: read-out: Sigma 2 Ki; [^3H]-DTG 1 nM, 500 nM pentazocine, crude P2 membrane fraction from rat livers, 50 mM Tris-HCl pH 7.4, 25°C, 2 hours
row,Ki,SMILES
1,35 nM,"N=c1sc2cc(Cl)ccc2n1CC1CCN(C[C@H](O)c2ccc(F)cc2)CC1 (racemic) [Example 3, (R,S)-1-(4-Fluorophenyl)-2-[4-(6-chloro-2-iminobenzothiazolin-3-ylmethyl)-piperidin-1-yl]ethanol dihydrochloride]"
